Measurements: a polymer gas permeability compilation

CH4 permeability	CO2 permeability	H2 permeability	N2 permeability	O2 permeability	Structure (SMILES)
50.5 Barrer	692 Barrer		58.6 Barrer	198 Barrer	*c1c(C)c2c(c(N3C(=O)c4ccc(C(c5ccc6c(c5)C(=O)N(*)C6=O)(C(F)(F)F)C(F)(F)F)cc4C3=O)c1C)C(C)(C)CC2 (repeat unit)
190 Barrer	2910 Barrer	2170 Barrer	145 Barrer	550 Barrer	*c1c(C)cc(-c2cc(C)c(N3C(=O)c4cc5c(cc4C3=O)C3(C(C)C)c4ccccc4C5(C(C)C)c4cc5c(cc43)C(=O)N(*)C5=O)c3ccccc23)c2ccccc12 (repeat unit)
230 Barrer	4300 Barrer	3420 Barrer	208 Barrer	901 Barrer	*c1c(C)cc(-c2cc(C)c(N3C(=O)c4cc5c(cc4C3=O)C3(C)CCC5(C)c4cc5c(cc43)C(=O)N(*)C5=O)c3ccccc23)c2ccccc12 (repeat unit)
187 Barrer	3350 Barrer	2740 Barrer	158 Barrer	696 Barrer	*c1c(C)cc(-c2cc(C)c(N3C(=O)c4cc5c(cc4C3=O)C3(C)c4ccccc4C5(C)c4cc5c(cc43)C(=O)N(*)C5=O)c3ccccc23)c2ccccc12 (repeat unit)
1.45 Barrer	43.9 Barrer		2.13 Barrer	10.3 Barrer	*c1c(C)cc(Cc2cc(C)c(N3C(=O)c4ccc(C(c5ccc6c(c5)C(=O)N(*)C6=O)(C(F)(F)F)C(F)(F)F)cc4C3=O)c(C)c2)cc1C (repeat unit)
0.565 Barrer	35 Barrer	83.5 Barrer	1.2 Barrer	7.45 Barrer	*c1cc(C(c2ccc(O)c(N3C(=O)c4cc5c(cc4C3=O)C3(C)c4ccccc4C5(C)c4cc5c(cc43)C(=O)N(*)C5=O)c2)(C(F)(F)F)C(F)(F)F)ccc1O (repeat unit)
0.08 Barrer	9.9 Barrer	35 Barrer	0.4 Barrer	2.6 Barrer	*c1cc(C(c2ccc(O)c(N3C(=O)c4ccc(C(c5ccc6c(c5)C(=O)N(*)C6=O)(C(F)(F)F)C(F)(F)F)cc4C3=O)c2)(C(F)(F)F)C(F)(F)F)ccc1O (repeat unit)
0.349 Barrer	17.9 Barrer		0.499 Barrer	3.53 Barrer	*c1cc(C)c(N2C(=O)c3ccc(C(c4ccc5c(c4)C(=O)N(*)C5=O)(C(F)(F)F)C(F)(F)F)cc3C2=O)c(C)c1 (repeat unit)
0.037 Barrer	2.74 Barrer		0.0763 Barrer	0.577 Barrer	*c1cc2c(cc1C)-c1cc(C)c(N3C(=O)c4ccc(-c5ccc6c(c5)C(=O)N(*)C6=O)cc4C3=O)cc1S2(=O)=O (repeat unit)

Second part, the compound before the results:

Structure (SMILES)	CH4 permeability	CO2 permeability	H2 permeability	N2 permeability	O2 permeability
*C(=C(*)c1ccc2c(c1)C(C)(C)CC2(C)C)c1ccc(Br)cc1 (repeat unit)	22400 Barrer	32800 Barrer	20700 Barrer	9200 Barrer	11400 Barrer
*C(=C(*)c1ccc2c(c1)C(C)(C)CC2(C)C)c1ccc(F)cc1 (repeat unit)	34300 Barrer	47000 Barrer	33300 Barrer	15600 Barrer	17900 Barrer
*C(=C(*)c1ccc2c(c1)C(C)(C)CC2(C)C)c1ccccc1 (repeat unit)	29100 Barrer	38700 Barrer	24800 Barrer	11600 Barrer	14400 Barrer
*c1c(C)c(C)c(N2C(=O)c3ccc(Oc4c(C)ccc(C)c4Oc4ccc5c(c4)C(=O)N(*)C5=O)cc3C2=O)c(C)c1C (repeat unit)	1.9 Barrer	63 Barrer	100 Barrer	2.05 Barrer	11 Barrer
*c1c(C)c(C)c(N2C(=O)c3ccc(Oc4c(C)cccc4Oc4ccc5c(c4)C(=O)N(*)C5=O)cc3C2=O)c(C)c1C (repeat unit)	0.7 Barrer	27 Barrer	51 Barrer	0.83 Barrer	4.8 Barrer
*c1c(C)c(C)c(N2C(=O)c3ccc(Oc4cc(C(C)(C)C)cc(C)c4Oc4ccc5c(c4)C(=O)N(*)C5=O)cc3C2=O)c(C)c1C (repeat unit)	2.2 Barrer	67 Barrer	110 Barrer	2.5 Barrer	13 Barrer
*c1c(C)c(C)c(N2C(=O)c3ccc(Oc4cc(C(C)(C)C)ccc4Oc4ccc5c(c4)C(=O)N(*)C5=O)cc3C2=O)c(C)c1C (repeat unit)	3.1 Barrer	71 Barrer	91 Barrer	2.55 Barrer	12 Barrer
*c1c(C)c(C)c(N2C(=O)c3ccc(Oc4cc(C)ccc4Oc4ccc5c(c4)C(=O)N(*)C5=O)cc3C2=O)c(C)c1C (repeat unit)	0.47 Barrer	20 Barrer	41 Barrer	0.59 Barrer	3.5 Barrer
*c1c(C)cc(-c2cc(C)c(-c3cc(C)c(*)c(C)c3)cc2C)cc1C (repeat unit)	15 Barrer	360 Barrer	350 Barrer	16.5 Barrer	67 Barrer
*c1c(C)cc(-c2cc(C)c(-n3c(=O)c4cc5oc6cc7c(cc6oc5cc4c3=O)C3(CC(C)(C)c4cc5oc6cc8c(=O)n(*)c(=O)c8cc6oc5cc43)CC7(C)C)c3ccccc23)c2ccccc12 (repeat unit)	215 Barrer	2980 Barrer	1310 Barrer	130 Barrer	432 Barrer
*c1c(C)cc(Cc2cc(C)c(N3C(=O)c4ccc(-c5ccc6c(c5)C(=O)N(*)C6=O)cc4C3=O)c(C)c2)cc1C (repeat unit)	0.818 Barrer	22.4 Barrer		0.913 Barrer	4.73 Barrer
*c1c(C)cc2c(c1C)C1c3ccccc3C2c2cc(C)c(N3C(=O)C4C5C=CC(C6C(=O)N(*)C(=O)C56)C4C3=O)c(C)c21 (repeat unit)	69 Barrer	1310 Barrer	1600 Barrer	71 Barrer	308 Barrer
*c1c(C)cc2c(c1C)C1c3ccccc3C2c2cc(C)c(N3C(=O)c4ccc5c6c(ccc(c46)C3=O)C(=O)N(*)C5=O)c(C)c21 (repeat unit)	122 Barrer	1860 Barrer	1480 Barrer	97 Barrer	390 Barrer
*c1cc(C)c(C)c(N2C(=O)c3ccc(Oc4cc(C(C)(C)C)ccc4Oc4ccc5c(c4)C(=O)N(*)C5=O)cc3C2=O)c1C (repeat unit)	2.5 Barrer	63 Barrer	85 Barrer	2.2 Barrer	11 Barrer
*c1cc(C)c(C)c(N2C(=O)c3ccc(Oc4cc(C)ccc4Oc4ccc5c(c4)C(=O)N(*)C5=O)cc3C2=O)c1C (repeat unit)	0.57 Barrer	22 Barrer	41 Barrer	0.65 Barrer	3.9 Barrer
*c1cc2c(cc1C)-c1cc(C)c(N3C(=O)c4cc5c(cc4C3=O)S(=O)(=O)c3cc4c(cc3S5(=O)=O)C(=O)N(*)C4=O)cc1S2(=O)=O (repeat unit)	0.59 Barrer	24 Barrer		0.7 Barrer	
